For data set [1], the target named is PI3Kα (Homo sapiens, UniProt P42336). Nature of the data set: PI3K-alpha fluorescence polarization assay. Format: biochemical. The note with it: read-out: PI3Kα Median IC50. A general note: In fluorescence polarisation assays a small probe gives low polarisation when free and higher when bound to something large.
The target in data set [2] is PI3Kγ (Homo sapiens, UniProt P48736). The experiment in a line: PI3K-gamma fluorescence polarization assay. Format: biochemical. The conditions noted are these: read-out: PI3Kγ Median IC50.
PI3Kγ, sequence (P48736 whole entry, species assumed): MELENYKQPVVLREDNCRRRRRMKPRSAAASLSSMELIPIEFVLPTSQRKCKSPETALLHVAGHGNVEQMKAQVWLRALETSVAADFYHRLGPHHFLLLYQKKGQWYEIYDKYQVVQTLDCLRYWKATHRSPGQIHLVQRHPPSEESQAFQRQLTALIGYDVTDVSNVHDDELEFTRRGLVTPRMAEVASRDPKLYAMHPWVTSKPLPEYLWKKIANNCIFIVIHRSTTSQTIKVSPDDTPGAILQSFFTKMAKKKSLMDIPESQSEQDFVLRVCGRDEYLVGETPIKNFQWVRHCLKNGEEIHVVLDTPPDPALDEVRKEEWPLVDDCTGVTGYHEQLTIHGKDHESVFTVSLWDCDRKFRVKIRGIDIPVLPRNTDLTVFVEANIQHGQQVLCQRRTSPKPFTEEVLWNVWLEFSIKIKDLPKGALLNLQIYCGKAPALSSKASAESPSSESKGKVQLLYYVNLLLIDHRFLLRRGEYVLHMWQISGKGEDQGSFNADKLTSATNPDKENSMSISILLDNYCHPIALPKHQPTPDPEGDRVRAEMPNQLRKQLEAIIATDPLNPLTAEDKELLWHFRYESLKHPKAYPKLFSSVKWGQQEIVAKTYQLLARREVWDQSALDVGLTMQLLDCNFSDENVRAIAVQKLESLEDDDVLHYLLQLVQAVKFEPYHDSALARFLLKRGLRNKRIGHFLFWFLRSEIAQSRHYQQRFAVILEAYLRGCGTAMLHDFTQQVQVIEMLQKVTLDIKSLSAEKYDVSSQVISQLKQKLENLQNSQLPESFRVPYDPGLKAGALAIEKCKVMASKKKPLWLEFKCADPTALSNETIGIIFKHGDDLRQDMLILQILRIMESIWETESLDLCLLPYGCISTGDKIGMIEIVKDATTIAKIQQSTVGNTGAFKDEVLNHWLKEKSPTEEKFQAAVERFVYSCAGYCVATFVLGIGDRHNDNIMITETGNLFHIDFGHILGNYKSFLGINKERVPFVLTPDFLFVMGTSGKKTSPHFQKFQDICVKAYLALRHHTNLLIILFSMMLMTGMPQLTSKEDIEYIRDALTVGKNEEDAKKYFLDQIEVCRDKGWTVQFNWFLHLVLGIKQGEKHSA
The target of data set [3] is mTOR (Homo sapiens, UniProt P42345). The experiment in a line: mTOR enzyme assay (DELFIA format, His6-S6K substrate). In kind it is biochemical. The note with it: read-out: mTOR Kinase Median IC50.

Molecules are shown by their SMILES. Where only a bound is given, the exact number is not on record here.

This is an account of results in patent publication US20090298820A1, “3-SUBSTITUTED-1H-PYRROLO[2,3-B]PYRIDINE AND 3-SUBSTITUTED-1H-PYRROLO[3,2-B]PYRIDINE COMPOUNDS, THEIR USE AS MTOR KINASE AND PI3 KINASE INHIBITORS, AND THEIR SYNTHESES” (Wyeth, priority 2008, published 2009).

PI3Kα, sequence (P42336 whole entry, species assumed): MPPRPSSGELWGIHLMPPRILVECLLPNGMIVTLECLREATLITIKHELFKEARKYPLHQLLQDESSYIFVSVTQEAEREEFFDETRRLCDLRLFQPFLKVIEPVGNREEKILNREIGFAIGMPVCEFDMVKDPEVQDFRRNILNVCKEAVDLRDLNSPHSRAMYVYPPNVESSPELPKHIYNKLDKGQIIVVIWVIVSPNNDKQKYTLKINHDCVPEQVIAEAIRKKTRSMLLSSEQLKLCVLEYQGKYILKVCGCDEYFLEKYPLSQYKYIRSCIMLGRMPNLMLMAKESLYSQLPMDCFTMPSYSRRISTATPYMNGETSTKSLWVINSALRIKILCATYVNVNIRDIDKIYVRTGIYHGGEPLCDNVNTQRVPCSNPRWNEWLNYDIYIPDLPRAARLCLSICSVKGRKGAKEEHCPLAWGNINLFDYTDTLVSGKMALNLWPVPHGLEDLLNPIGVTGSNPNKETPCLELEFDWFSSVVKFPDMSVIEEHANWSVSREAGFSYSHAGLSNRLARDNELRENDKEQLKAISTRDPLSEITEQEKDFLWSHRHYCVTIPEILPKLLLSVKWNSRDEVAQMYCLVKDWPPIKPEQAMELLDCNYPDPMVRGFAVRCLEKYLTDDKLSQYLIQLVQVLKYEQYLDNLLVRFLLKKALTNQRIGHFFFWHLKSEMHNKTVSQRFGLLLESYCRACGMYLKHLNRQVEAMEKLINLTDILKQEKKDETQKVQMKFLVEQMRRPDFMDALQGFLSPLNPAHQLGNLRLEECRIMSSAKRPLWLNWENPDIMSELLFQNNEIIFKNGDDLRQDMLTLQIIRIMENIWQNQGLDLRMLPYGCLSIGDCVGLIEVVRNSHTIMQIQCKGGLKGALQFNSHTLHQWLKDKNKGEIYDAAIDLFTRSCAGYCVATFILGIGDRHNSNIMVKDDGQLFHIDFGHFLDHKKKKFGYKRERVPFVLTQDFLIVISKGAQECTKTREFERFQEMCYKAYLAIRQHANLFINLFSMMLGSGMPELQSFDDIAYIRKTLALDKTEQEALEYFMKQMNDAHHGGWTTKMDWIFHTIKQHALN
PI3Kα, sequence (P27986 whole entry partner, species assumed): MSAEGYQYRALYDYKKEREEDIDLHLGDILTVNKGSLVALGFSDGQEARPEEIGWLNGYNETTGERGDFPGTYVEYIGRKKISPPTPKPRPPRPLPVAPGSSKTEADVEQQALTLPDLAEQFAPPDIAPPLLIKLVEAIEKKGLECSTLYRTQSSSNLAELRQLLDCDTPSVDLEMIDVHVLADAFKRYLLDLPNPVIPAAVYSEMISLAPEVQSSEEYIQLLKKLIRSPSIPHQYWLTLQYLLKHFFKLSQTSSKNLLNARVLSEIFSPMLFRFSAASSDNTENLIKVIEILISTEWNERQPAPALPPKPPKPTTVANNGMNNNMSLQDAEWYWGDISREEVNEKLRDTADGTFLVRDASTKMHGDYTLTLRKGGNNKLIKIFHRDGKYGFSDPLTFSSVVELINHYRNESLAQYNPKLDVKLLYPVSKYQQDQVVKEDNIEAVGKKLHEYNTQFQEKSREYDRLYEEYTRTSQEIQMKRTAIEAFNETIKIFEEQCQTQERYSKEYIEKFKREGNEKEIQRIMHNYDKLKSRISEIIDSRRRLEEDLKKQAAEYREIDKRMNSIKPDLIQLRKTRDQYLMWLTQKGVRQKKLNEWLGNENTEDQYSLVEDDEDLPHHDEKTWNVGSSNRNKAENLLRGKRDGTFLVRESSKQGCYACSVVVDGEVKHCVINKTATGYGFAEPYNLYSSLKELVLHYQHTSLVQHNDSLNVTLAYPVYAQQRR

Regarding `Cn1cc(/C=C2\Oc3ccc(NC(=O)NCCCCl)cc3C2=O)c2c(N3CC4CCC(C3)O4)ccnc21` [Compound 240, 1-(3-chloropropyl)-3-[(2Z)-2-{[1-methyl-4-(8-oxa-3-azabicyclo[3.2.1]oct-3-yl)-1H-pyrrolo[2,3-b]pyridin-3-yl]methylene}-3-oxo-2,3-dihydro-1-benzofuran-5-yl]urea], the melting point (in general, the temperature of the solid-liquid transition) was in the range of 234 to 241 °C. In data set [1], the IC50 (commonly the concentration that inhibits the measured activity by half) turned out to be 1060 nM. Besides, in data set [2], the IC50 was 2180 nM. In data set [3], the IC50 was 105 nM.

In turn, `CN(C)CCCNC(=O)Nc1ccc2c(c1)C(=O)/C(=C/c1cn(C)c3nccc(N4CC5CCC(C4)O5)c13)O2` [Compound 241, 1-[3-(dimethylamino)propyl]-3-[(2Z)-2-{[1-methyl-4-(8-oxa-3-azabicyclo[3.2.1]oct-3-yl)-1H-pyrrolo[2,3-b]pyridin-3-yl]methylene}-3-oxo-2,3-dihydro-1-benzofuran-5-yl]urea] displayed a melting point of 261 to 263 °C. Moreover, the IC50 in data set [1] was determined as 53 nM. The IC50 in data set [2] turned out to be 34 nM. Further, in data set [3], the IC50 was 10.5 nM.

As for `COCCN(C)CCCNC(=O)Nc1ccc2c(c1)C(=O)/C(=C/c1cn(C)c3nccc(N4CC5CCC(C4)O5)c13)O2` [Compound 242, 1-{3-[(2-methoxyethyl)(methyl)amino]propyl}-3-[(2Z)-2-{[1-methyl-4-(8-oxa-3-azabicyclo[3.2.1]oct-3-yl)-1H-pyrrolo[2,3-b]pyridin-3-yl]methylene}-3-oxo-2,3-dihydro-1-benzofuran-5-yl]urea], the melting point fell in the range of 158 to 163 °C. Moreover, the IC50 in data set [1] stood at 243 nM. The IC50 in data set [2] is 781 nM. Moreover, the IC50 in data set [3] is 64.5 nM.

As for `COCCN(C)C(=O)C1CCN(c2ccnc3c2c(/C=C2\Oc4ccc(NC(=O)Nc5cccnc5)cc4C2=O)cn3C)CC1` [Compound 246, N-(2-methoxyethyl)-N-methyl-1-{1-methyl-3-[(Z)-{3-oxo-5-[(pyridin-3-ylcarbamoyl)amino]-1-benzofuran-2(3H)-ylidene}methyl]-1H-pyrrolo[2,3-b]pyridin-4-yl}piperidine-4-carboxamide], the melting point was in the range of 282 to 285 °C. Besides, the IC50 in data set [1] worked out at 1420 nM. In data set [2], the IC50 was 1540 nM. In addition, in data set [3], the IC50 was determined as 30.5 nM.

The compound `Cn1cc(/C=C2\Oc3ccc(NC(=O)Nc4cccnc4)cc3C2=O)c2c(N3CCC(C(=O)N4CC5CCC(C4)O5)CC3)ccnc21` [Compound 250, 1-[(2Z)-2-({1-methyl-4-[4-(8-oxa-3-azabicyclo[3.2.1]oct-3-ylcarbonyl)piperidin-1-yl]-1H-pyrrolo[2,3-b]pyridin-3-yl}methylene)-3-oxo-2,3-dihydro-1-benzofuran-5-yl]-3-pyridin-3-ylurea] yielded a melting point of 260 to 265 °C. Further, the IC50 in data set [1] came to 1680 nM. In data set [2], the IC50 turned out to be 2820 nM. Also, the IC50 in data set [3] was 17 nM.

For `COCCN(CCOC)C(=O)C1CCN(c2ccnc3c2c(/C=C2\Oc4ccc(NC(=O)Nc5cccnc5)cc4C2=O)cn3C)CC1` [Compound 251, N,N-bis(2-methoxyethyl)-1-{1-methyl-3-[(Z)-{3-oxo-5-[(pyridin-3-ylcarbamoyl)amino]-1-benzofuran-2(3H)-ylidene}methyl]-1H-pyrrolo[2,3-b]pyridin-4-yl}piperidine-4-carboxamide], the melting point was 206 to 210 °C. Moreover, in data set [1], the IC50 amounted to 4050 nM. In data set [2], the IC50 came out at 5580 nM. Moreover, the concentration for half-maximal inhibition (IC50) in data set [3] is 16 nM.

As to `CN(Cc1ccncc1)C(=O)C1CCN(c2ccnc3c2c(/C=C2\Oc4ccc(NC(=O)Nc5cccnc5)cc4C2=O)cn3C)CC1` [Compound 255, N-methyl-1-{1-methyl-3-[(Z)-{3-oxo-5-[(pyridin-3-ylcarbamoyl)amino]-1-benzofuran-2(3H)-ylidene}methyl]-1H-pyrrolo[2,3-b]pyridin-4-yl}-N-(pyridin-4-ylmethyl)piperidine-4-carboxamide], the melting point lay in the range of 125 to 135 °C. In addition, the IC50 in data set [1] was determined as 1230 nM. Besides, the IC50 in data set [2] is 2410 nM. Moreover, the IC50 in data set [3] stood at 9.3 nM.

As for `CN(Cc1cccnc1)C(=O)C1CCN(c2ccnc3c2c(/C=C2\Oc4ccc(NC(=O)Nc5cccnc5)cc4C2=O)cn3C)CC1` [Compound 256, N-methyl-1-{1-methyl-3-[(Z)-{3-oxo-5-[(pyridin-3-ylcarbamoyl)amino]-1-benzofuran-2(3H)-ylidene}methyl]-1H-pyrrolo[2,3-b]pyridin-4-yl}-N-(pyridin-3-ylmethyl)piperidine-4-carboxamide], the melting point lay within 195 to 205 °C. For the same compound, the IC50 in data set [1] was found to be 1020 nM. Also, in data set [2], the 50% inhibitory concentration (IC50) came to 1610 nM. Further, in data set [3], the IC50 came out at 10.9 nM.

In turn, `CN(Cc1ccccn1)C(=O)C1CCN(c2ccnc3c2c(/C=C2\Oc4ccc(NC(=O)Nc5cccnc5)cc4C2=O)cn3C)CC1` [Compound 257, N-methyl-1-{1-methyl-3-[(Z)-{3-oxo-5-[(pyridin-3-ylcarbamoyl)amino]-1-benzofuran-2(3H)-ylidene}methyl]-1H-pyrrolo[2,3-b]pyridin-4-yl}-N-(pyridin-2-ylmethyl)piperidine-4-carboxamide] had a melting point of 187 to 189 °C. For the same compound, the IC50 in data set [1] worked out at 1570 nM. The IC50 in data set [2] was determined as 1400 nM. For the same compound, the half-maximal inhibitory concentration (IC50) in data set [3] worked out at 8.4 nM.

On to `Cn1cc(/C=C2\Oc3ccc(NC(=O)Nc4cccnc4)cc3C2=O)c2c(N3CCC(C(=O)Nc4cccnc4)CC3)ccnc21` [Compound 262, 1-{1-methyl-3-[(Z)-{3-oxo-5-[(pyridin-3-ylcarbamoyl)amino]-1-benzofuran-2(3H)-ylidene}methyl]-1H-pyrrolo[2,3-b]pyridin-4-yl}-N-pyridin-3-ylpiperidine-4-carboxamide], for which the melting point is 180 to 190 °C (dec.). The concentration for half-maximal inhibition (IC50) in data set [1] turned out to be 2890 nM. Besides, in data set [2], the IC50 was found to be 10500 nM. Further, the IC50 in data set [3] worked out at 14.5 nM.

Regarding `Cn1cc(/C=C2\Oc3ccc(NC(=O)Nc4cccnc4)cc3C2=O)c2c(N3CCC(C(=O)Nc4ccncc4)CC3)ccnc21` [Compound 263, 1-{1-methyl-3-[(Z)-{3-oxo-5-[(pyridin-3-ylcarbamoyl)amino]-1-benzofuran-2(3H)-ylidene}methyl]-1H-pyrrolo[2,3-b]pyridin-4-yl}-N-pyridin-4-ylpiperidine-4-carboxamide], the melting point was 230 to 235 °C (dec.). In addition, in data set [1], the IC50 was determined as 15500 nM. Moreover, in data set [2], the IC50 was found to be 8210 nM. For the same compound, the IC50 in data set [3] is 25 nM.

For the compound `Cn1cc(/C=C2\Oc3ccc(NC(=O)Nc4cccnc4)cc3C2=O)c2c(N3CCC(C(=O)N4CC5CC4CN5)CC3)ccnc21` (centres unmarked) [Compound 264, 1-[(2Z)-2-({4-[4-(2,5-diazabicyclo[2.2.1]hept-2-ylcarbonyl)piperidin-1-yl]-1-methyl-1H-pyrrolo[2,3-b]pyridin-3-yl}methylene)-3-oxo-2,3-dihydro-1-benzofuran-5-yl]-3-pyridin-3-ylurea], the melting point was 257 to 262 °C (dec.). Moreover, in data set [1], the IC50 came to 6360 nM. Also, the IC50 in data set [2] is 378 nM. Moreover, the IC50 in data set [3] is 16.5 nM.

`CN(C(=O)C1CCN(c2ccnc3c2c(/C=C2\Oc4ccc(NC(=O)Nc5cccnc5)cc4C2=O)cn3C)CC1)c1cccnc1` [Compound 269, N-methyl-1-{1-methyl-3-[(Z)-{3-oxo-5-[(pyridin-3-ylcarbamoyl)amino]-1-benzofuran-2(3H)-ylidene}methyl]-1H-pyrrolo[2,3-b]pyridin-4-yl}-N-pyridin-3-ylpiperidine-4-carboxamide] came in with a melting point of 184 to 194 °C. Further, the IC50 in data set [1] amounted to 4960 nM. Further, in data set [2], the IC50 worked out at 5750 nM. In data set [3], the IC50 was 13 nM.

In the case of `Cn1cc(/C=C2\Oc3ccc(NC(=O)Nc4cccnc4)cc3C2=O)c2c(N3CCC(C(=O)NCc4cccnc4)CC3)ccnc21` [Compound 270, 1-{1-methyl-3-[(Z)-{3-oxo-5-[(pyridin-3-ylcarbamoyl)amino]-1-benzofuran-2(3H)-ylidene}methyl]-1H-pyrrolo[2,3-b]pyridin-4-yl}-N-(pyridin-3-ylmethyl)piperidine-4-carboxamide], the melting point was 187 to 194 °C. The IC50 in data set [1] was greater than 10000 nM. Besides, in data set [2], the IC50 was greater than 10000 nM. For the same compound, the IC50 in data set [3] is 6 nM.

`Cn1cc(/C=C2\Oc3ccc(NC(=O)Nc4cccnc4)cc3C2=O)c2c(N3CCC(C(=O)NCc4ccncc4)CC3)ccnc21` [Compound 271, 1-{1-methyl-3-[(Z)-{3-oxo-5-[(pyridin-3-ylcarbamoyl)amino]-1-benzofuran-2(3H)-ylidene}methyl]-1H-pyrrolo[2,3-b]pyridin-4-yl}-N-(pyridin-4-ylmethyl)piperidine-4-carboxamide] gave a melting point of 208 to 216 °C. In data set [1], the IC50 was 4040 nM. Besides, the IC50 in data set [2] was found to be 3910 nM. Moreover, in data set [3], the IC50 was found to be 9 nM.

`CN1CC2CC1CN2C(=O)C1CCN(c2ccnc3c2c(/C=C2\Oc4ccc(NC(=O)Nc5cccnc5)cc4C2=O)cn3C)CC1` (centres unmarked) [Compound 272, 1-{(2Z)-2-[(1-methyl-4-{4-[(5-methyl-2,5-diazabicyclo[2.2.1]hept-2-yl)carbonyl]piperidin-1-yl}-1H-pyrrolo[2,3-b]pyridin-3-yl)methylidene]-3-oxo-2,3-dihydro-1-benzofuran-5-yl}-3-pyridin-3-ylurea]: the melting point lay in the range of 151 to 164 °C. Further, the IC50 in data set [1] is greater than 10000 nM. In data set [2], the 50% inhibitory concentration (IC50) turned out to be 2410 nM. The IC50 in data set [3] was 19 nM.

Take `Cn1cc(/C=C2\Oc3ccc(NC(=O)Nc4cccnc4)cc3C2=O)c2c(N3C4CCCC3COC4)ccnc21` [Compound 276, 1-[(2Z)-2-{[1-methyl-4-(3-oxa-9-azabicyclo[3.3.1]non-9-yl)-1H-pyrrolo[2,3-b]pyridin-3-yl]methylidene}-3-oxo-2,3-dihydro-1-benzofuran-5-yl]-3-pyridin-3-ylurea]: the melting point was 240 to 245 °C (dec.). Further, the IC50 in data set [1] came to 2260 nM. For the same compound, the half-maximal inhibitory concentration (IC50) in data set [2] came to 1120 nM. Besides, the IC50 in data set [3] stood at 31.5 nM.
